Series [1] is described as follows: Solubility in water and at pH 7.4. Format: physicochemical. From the text:
Un grand nombre des composés de l'invention manifestent une augmentation de la solubilité dans l'eau ainsi que de la solubilité à pH 7,4 lorsqu'on compare avec les composés de référence. L'augmentation de solubilité au pH physiologique peut favoriser l'absorption du produit et la solubilité élevée dans l'eau permet l'administration du composé par voie parentérale.

In series [2] the test system is Strep. faecalis ATCC 10541. Put plainly: Antimicrobial activity, agar dilution. In kind it is cell-based, Streptococcus faecalis. The note with it: Enterococcus faecalis, ATCC10541, 20 h, Agar Dextrose dilutions, 37°C, 20 heures, read-out: Activité pharmacologique antimicrobienne (concentrations). The method, boiled down: (§1)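 Strains were precultured on antibiotic agar No. 1 and then in tryptone-soy broth, each for 20 h at 37°C, and diluted 1/4 in Ringer to a standardized suspension of […].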
For orientation: In agar dilution the substance is mixed into plates at graded concentrations.

The subject of the next series is Staph. aureus ATCC 25178. Put plainly: Antimicrobial activity, agar dilution. The conditions noted are these: Staphylococcus aureus, ATCC25178, 20 h, Agar Dextrose dilutions, 37°C, 20 heures, read-out: Activité pharmacologique antimicrobienne (concentrations). Format: cell-based, Staphylococcus aureus. The method, boiled down:
as §1

Series [3] has as its system Citr. freundii ATCC 11606. Put plainly: Antimicrobial activity, agar dilution. In kind it is cell-based, Citrobacter freundii. The note with it: Citrobacter freundii, ATCC11606, 20 h, Agar Dextrose dilutions, 37°C, 20 heures, read-out: Activité pharmacologique antimicrobienne (concentrations). The essentials: as §1
The test system of series [4] is Bacillus cereus ATCC 11778. Put plainly: Antimicrobial activity, agar dilution. The conditions noted are these: Bacillus cereus, ATCC11778, 20 h, Agar Dextrose dilutions, 37°C, 20 heures, read-out: Activité pharmacologique antimicrobienne (concentrations). Format: cell-based. The essentials:
as §1

Series [5] deals with Bacillus subtilis ATCC 6633. Put plainly: Antimicrobial activity, agar dilution. Format: cell-based. The conditions noted are these: ATCC6633, 20 h, Agar Dextrose dilutions, 37°C, 20 heures, read-out: Activité pharmacologique antimicrobienne (concentrations). The essentials:
as §1

Series [6] deals with Escherichia coli ATCC 10799. Briefly: Antimicrobial activity, agar dilution. In kind it is cell-based. The note with it: Escherichia coli, ATCC10799, 20 h, Agar Dextrose dilutions, 37°C, 20 heures, read-out: Activité pharmacologique antimicrobienne (concentrations). The method, boiled down:
as §1

Series [7] deals with Escherichia coli ATCC 23559. Put plainly: Antimicrobial activity, agar dilution. In kind it is cell-based. The conditions noted are these: Escherichia coli, ATCC23559, 20 h, Agar Dextrose dilutions, 37°C, 20 heures, read-out: Activité pharmacologique antimicrobienne (concentrations). The essentials:
as §1

The subject of the next series is Morg. morganii ATCC 8019. Briefly: Antimicrobial activity, agar dilution. Format: cell-based. The note with it: Morganella morganii, ATCC8019, 20 h, Agar Dextrose dilutions, 37°C, 20 heures, read-out: Activité pharmacologique antimicrobienne (concentrations). The essentials: as §1
Series [8] has as its system Proteus vulgaris ATCC 8427. Briefly: Antimicrobial activity, agar dilution. The conditions noted are these: Proteus vulgaris, ATCC8427, 20 h, Agar Dextrose dilutions, 37°C, 20 heures, read-out: Activité pharmacologique antimicrobienne (concentrations). In kind it is cell-based. The method, boiled down:
as §1

In series [9] the test system is Ps. aeruginosa ATCC 10145. Briefly: Antimicrobial activity, agar dilution. The note with it: Pseudomonas aeruginosa, ATCC10145, 20 h, Agar Dextrose dilutions, 37°C, 20 heures, read-out: Activité pharmacologique antimicrobienne (concentrations). In kind it is cell-based. The method, boiled down: as §1
For a further series, the system named is Ps. aeruginosa ATCC 9721. Put plainly: Antimicrobial activity, agar dilution. In kind it is cell-based. The conditions noted are these: Pseudomonas aeruginosa, ATCC9721, 20 h, Agar Dextrose dilutions, 37°C, 20 heures, read-out: Activité pharmacologique antimicrobienne (concentrations). The method, boiled down: as §1
A further series concerns Sal. typhi ATCC 6539. Put plainly: Antimicrobial activity, agar dilution. In kind it is cell-based. The note with it: Salmonella enterica, 20 h, read-out: Activité pharmacologique antimicrobienne (concentrations). The method, boiled down:
as §1

Series [10] has as its system Shigella flexnerii ATCC 12022. Put plainly: Antimicrobial activity, agar dilution. Format: cell-based. The note with it: ATCC12022, 20 h, Agar Dextrose dilutions, 37°C, 20 heures, read-out: Activité pharmacologique antimicrobienne (concentrations). The method, boiled down:
as §1

Series [11] relates to Staph. epidermidis ATCC 155-1. Briefly: Antimicrobial activity, agar dilution. Format: cell-based. The conditions noted are these: Staphylococcus epidermidis, ATCC155, 20 h, Agar Dextrose dilutions, 37°C, 20 heures, read-out: Activité pharmacologique antimicrobienne (concentrations). The method, boiled down:
as §1

Series [12] concerns Kleb. pneumoniae ATCC 10031. Briefly: Antimicrobial activity, agar dilution. Format: cell-based, Klebsiella pneumoniae. The note with it: Klebsiella pneumoniae, ATCC10031, 20 h, Agar Dextrose dilutions, 37°C, 20 heures, read-out: Activité pharmacologique antimicrobienne (concentrations). The method, boiled down: as §1
Series [13] deals with Sal. typhimurium ATCC 14028. Put plainly: Antimicrobial activity, agar dilution. Format: cell-based, Salmonella typhimurium. The note with it: Salmonella enterica, 20 h, Agar Dextrose dilutions, 37°C, 20 heures, read-out: Activité pharmacologique antimicrobienne (concentrations). The method, boiled down:
as §1

In series [14] the test system is Ent. aerogenes ATCC 15038. Briefly: Antimicrobial activity, agar dilution. In kind it is cell-based, Enterobacter aerogenes. The conditions noted are these: Klebsiella aerogenes, ATCC15038, 20 h, Agar Dextrose dilutions, 37°C, 20 heures, read-out: Activité pharmacologique antimicrobienne (concentrations). The method, boiled down: as §1
In a further series the test system is Ent. cloacae ATCC 23355. Briefly: Antimicrobial activity, agar dilution. In kind it is cell-based, Enterobacter cloacae. The note with it: Enterobacter cloacae, ATCC23355, 20 h, Agar Dextrose dilutions, 37°C, 20 heures, read-out: Activité pharmacologique antimicrobienne (concentrations). The method, boiled down:
as §1

Series [15] deals with Serr. marcescens ATCC 13880. Briefly: Antimicrobial activity, agar dilution. In kind it is cell-based, Serratia marcescens. The note with it: Serratia marcescens, ATCC13880, 20 h, Agar Dextrose dilutions, 37°C, 20 heures, read-out: Activité pharmacologique antimicrobienne (concentrations). The essentials:
as §1

Converted amounts (≈) assume the structure as drawn.

What is called solubility is the concentration that dissolves in the medium under given conditions. The low end stands for a poorly soluble substance, the high end for a readily soluble substance. Regarding `C[C@@H]1[C@@H](NC(=O)[C@@H](C)N)CN1c1nc2c(cc1F)c(=O)c(C(=O)O)cn2C1CC1` [Exemple 4fa], the solubility in [1] (pH 7) and in series [1] (water) was more than 0.5 mg/mL in each case. The MIC in [2] turned out to be 1 mg/L (≈ 2.48 µM); in the series with Staph. aureus ATCC 25178 it was 1 mg/L (≈ 2.48 µM); in series [3], 4 mg/L (≈ 9.92 µM); in series [4] it was 1 mg/L (≈ 2.48 µM); in series [5], 0.5 mg/L (≈ 1.24 µM); in series [6], 4 mg/L (≈ 9.92 µM). Moreover, the MIC was 1 mg/L (≈ 2.48 µM) in series [7]; 8 mg/L (≈ 19.8 µM) in the series with Morg. morganii ATCC 8019; 8 mg/L (≈ 19.8 µM) in series [8]; more than 16 mg/L in [9]; more than 16 mg/L in the series with Ps. aeruginosa ATCC 9721; 4 mg/L (≈ 9.92 µM) in the series on Sal. typhi ATCC 6539. In addition, the MIC amounted to 1 mg/L (≈ 2.48 µM) in [10]; 0.25 mg/L (≈ 0.62 µM) in [11]; 8 mg/L (≈ 19.8 µM) in [12]; 4 mg/L (≈ 9.92 µM) in series [13]; 4 mg/L (≈ 9.92 µM) in [14]; 4 mg/L (≈ 9.92 µM) with Ent. cloacae ATCC 23355. Further, in series [15], the MIC turned out to be 16 mg/L (≈ 39.7 µM).
